According to US9868728B2, “Quinazoline derivatives, compositions, and uses related thereto” (Emory University, priority 2010, dated 2018):

Target: T1, NOX2 (Homo sapiens, UniProt P04839)
T1 construct: isolated plasma membranes from human neutrophils as a source for Nox2-p22phox; from tissue; host or cells: Plasma membranes of human neutrophils (Nox2-p22phox); cytosolic factors recombinant from E. coli
T1 sequence (P04839 2-570 limits assumed): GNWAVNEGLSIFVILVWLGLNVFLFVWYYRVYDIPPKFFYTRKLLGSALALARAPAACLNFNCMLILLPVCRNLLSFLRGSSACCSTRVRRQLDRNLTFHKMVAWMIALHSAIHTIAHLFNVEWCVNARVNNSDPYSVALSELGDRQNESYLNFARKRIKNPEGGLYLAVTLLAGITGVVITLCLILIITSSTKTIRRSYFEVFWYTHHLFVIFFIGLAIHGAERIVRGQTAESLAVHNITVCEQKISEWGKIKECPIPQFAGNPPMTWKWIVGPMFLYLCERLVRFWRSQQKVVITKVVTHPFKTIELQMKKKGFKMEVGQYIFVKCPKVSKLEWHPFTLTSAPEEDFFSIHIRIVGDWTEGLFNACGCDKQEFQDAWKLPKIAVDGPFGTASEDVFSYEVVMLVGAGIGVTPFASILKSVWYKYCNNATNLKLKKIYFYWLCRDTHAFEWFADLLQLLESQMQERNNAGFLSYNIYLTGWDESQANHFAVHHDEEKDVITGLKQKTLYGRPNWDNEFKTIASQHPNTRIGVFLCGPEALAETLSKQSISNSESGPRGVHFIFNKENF
T1 sequence (P13498 2-195 partner limits assumed): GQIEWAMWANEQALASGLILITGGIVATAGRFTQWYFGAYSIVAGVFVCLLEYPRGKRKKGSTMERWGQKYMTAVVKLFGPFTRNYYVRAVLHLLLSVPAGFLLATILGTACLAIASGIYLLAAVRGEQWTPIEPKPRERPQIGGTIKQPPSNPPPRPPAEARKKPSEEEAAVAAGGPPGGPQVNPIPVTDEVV
Assay: Nox2 cell-free assay (LO12 luminescence)
Assay type: biochemical
Details: Nox2 cell-free system; for IC50: read-out: NOX2 IC50 (concentration giving half-maximal inhibition); for Emax: read-out: % inhibition (maximum inhibition achieved at a very high concentration of the compound)
Method: The following compounds were tested according to the procedures provided in the experimental section. Assays were carried out using the Nox2 cell-free system. The IC50 value is the concentration giving half-maximal inhibition, while the “% inhibition” shown in parentheses is the maximum inhibition achieved at a very high concentration of the compound. 100% refers to complete inhibition within experimental error of the assay.
In certain assays a Cell-Free recombinant NOX-2 system (consisting of isolated plasma membranes from human neutrophils as a source for Nox2-p22phox, supplemented with recombinant p47phox, p67phox and Rac1Q61L (activated Rac), expressed in and isolated from of E. coli. LO12 luminescence was used as a readout to monitor enzymatic activity.
Plasma membranes were prepared from human neutrophils, which express large amounts of Nox2 and stored at −80 C until use. Membranes are mixed with recombinant, purified cytosolic regulatory proteins (p67Np47 chimera, and constitutively active Rac1 mutant Q61) and FAD, along with varying concentrations of compound, and LO12, which luminesces when it reacts with ROSvi. The reaction is started by addition of NADPH and SDS (an artificial stimulus for Nox2). See Curnutte et al., (1987) J. Biol. Chem. 262: 6450-6452.

Compound | IC50 | Emax (value in parentheses) | NOX2 IC50 (concentration giving half-maximal inhibition) | % inhibition (maximum inhibition achieved at a very high concentration of the compound) (value in parentheses)
CCOc1cc2c(=O)n(N)c(=S)[nH]c2cc1OC [AS2-001] | 1 µM | – | – | –
Nn1c(=S)[nH]c2cc3c(cc2c1=O)OCCO3 [AS2-014a] | 0.6 µM | – | – | –
Nn1c(=S)[nH]c2cc3c(cc2c1=O)OCO3 [AS2-014b] | 0.6 µM | – | – | –
O=C(O)CCCn1c(SCC(=O)Nc2nc(-c3ccccc3)cs2)nc2ccccc2c1=O [AS140] | > 10 µM | – | – | –
CCCCn1c(SCC(=O)Nc2cc(-c3ccc(C)cc3)no2)nc2ccccc2c1=O [AS153a] | > 10 µM | – | – | –
CN(C)CCCn1c(SCC(=O)Nc2cc(-c3ccc(Cl)cc3)no2)nc2ccccc2c1=O [AS154b] | 8 µM | 100% | – | –
CN(C)CCCn1c(SCC(=O)Nc2nc(-c3ccc(Br)cc3)cs2)nc2ccccc2c1=O [AS158a] | 5 µM | 100% | – | –
CCN(CC)CCCn1c(SCC(=O)Nc2nc(-c3cccc(C(F)(F)F)c3)cs2)nc2ccccc2c1=O [AS165b] | > 10 µM | 80% | – | –
CCCN(CCC)CCCn1c(SCC(=O)Nc2nc(-c3cccc(Br)c3)cs2)nc2ccccc2c1=O [AS173b] | > 20 µM | 40% | – | –
CN(C)CCCn1c(SCC(=O)Nc2nc(-c3cccc(C#N)c3)cs2)nc2ccccc2c1=O [AS188] | – | – | Not active | –
CN(C)CCCCn1c(SCC(=O)Nc2nc(-c3cccc(Br)c3)cs2)nc2ccccc2c1=O [AS195] | 3 µM | 100% | – | –
Nn1c(=S)[nH]c2ccccc2c1=O [AS-247] | 1.8 µM | – | – | –
Nn1c(SCC(=O)Nc2nc(-c3ccc(Br)cc3)cs2)nc2ccccc2c1=O [AS-248] | 12.7 µM | – | – | –
CN(C)CCCn1c(SCC(=O)Nc2nc(-c3ccc(Br)cc3)cs2)nc2ccsc2c1=O [AS-256] | 15 µM | – | – | –
CN(C)CCCn1c(=S)[nH]c2c(c1=O)CCCC2 [AS-259] | 7.5 µM | – | – | –
CN(C)CCCn1c(SCC(=O)Nc2nc(-c3ccc(Br)cc3)cs2)nc2c(c1=O)CCCC2 [AS-260] | 17.5 µM | – | – | –
COc1cc2[nH]c(=S)n(N)c(=O)c2cc1OC [AS-261A, 3-Amino-6,7-dimethoxy-2-thioxo-2,3-dihydroquinazolin-4(1H)-one] | 0.2 µM | – | – | –
COC(=O)c1ccc2c(=O)n(N)c(=S)[nH]c2c1 [AS-261B] | 0.5 µM | – | – | –
Nn1c(=S)[nH]c2cc(C(=O)O)ccc2c1=O [AS-262] | 6 µM | – | – | –
COC(=O)c1ccc2c(=O)n(N(C)C)c(=S)[nH]c2c1 [AS-266] | 6 µM | – | – | –
COc1cc2[nH]c(=S)n(N(C)C)c(=O)c2cc1OC [AS-268] | 2.5 µM | – | – | –
COc1cc2[nH]c(=S)n(CCCCN)c(=O)c2cc1OC [AS-269] | 1 µM | – | – | –

Compound | IC50 | Emax (value in parentheses) | NOX2 IC50 (concentration giving half-maximal inhibition) | % inhibition (maximum inhibition achieved at a very high concentration of the compound) (value in parentheses)
COc1cc2[nH]c(=S)n(CCCO)c(=O)c2cc1OC [AS-270] | 1 µM | – | – | –
COc1cc2[nH]c(=S)n(O)c(=O)c2cc1OC [AS-271] | 2 µM | – | – | –
CCOc1cc2[nH]c(=S)n(N)c(=O)c2cc1OC [AS-278] | 0.6 µM | – | – | –
Cc1ccc(-c2csc(NC(=O)CSc3nc4ccccc4c(=O)n3CCCN(C)C)n2)cc1 [Sample T5306350] | > 10 µM | 90% | – | –
CC(Sc1nc2ccccc2c(=O)n1CCCO)C(=O)Nc1nc(-c2ccccc2)cs1 (stereo not shown) [Sample T5826778] | > 10 µM | 90% | – | –
O=C(CSc1nc2ccccc2c(=O)n1CCCO)Nc1nc(-c2cc(F)ccc2F)cs1 [Sample T5837596] | > 10 µM | 20% | – | –
CN(C)CCCn1c(=S)[nH]c2ccccc2c1=O [TG6-17-2] | 6.5 µM | 60% | – | –
Cc1csc(NC(=O)CSc2nc3ccccc3c(=O)n2CCCN(C)C)n1 [TG6-18] | > 10 µM | – | – | –
CN(C)CCCn1c(SCC(=O)Nc2cc(-c3ccc(F)cc3)n[nH]2)nc2ccccc2c1=O [TG6-20] | 4.5 µM | 90% | – | –
CN(C)CCCn1c(SCC(=O)NCc2ccco2)nc2ccccc2c1=O [TG6-23] | > 10 µM | – | – | –
CCN(CC)CCn1c(=S)[nH]c2ccccc2c1=O [TG6-27-2] | 5.5 µM | 97% | – | –
COc1ccc(N(C)CCCNC(=O)c2cc(F)ccc2N)cc1 [TG6-30-2] | 0.2 µM | – | – | –
COc1ccc(N(C)CCCn2c(=S)[nH]c3ccc(F)cc3c2=O)cc1 [TG6-30] | 0.1 µM | 50% | – | –
CN(C)CCCn1c(=O)[nH]c2ccccc2c1=O [TG6-31] | – | – | Not active | –
CN1CCC(n2c(=S)[nH]c3ccccc3c2=O)CC1 [TG6-33-2] | 1 µM | 40% | – | –
CN(C)CCn1c(=S)[nH]c2ccccc2c1=O [TG6-35-2] | 4 µM | 50% | – | –
COc1ccc(-c2csc(NC(=O)CSc3nc4ccccc4c(=O)n3CCCN(C)C)n2)cc1 [TG6-36-2] | 11 µM | 95% | – | –
CN(C)CCCn1c(SCC(=O)Nc2nc(-c3ccc(Br)cc3)cs2)nc2ccccc2c1=O [TG6-37-2] | 6 µM | – | – | 95%
CN(C)CCCCCn1c(=S)[nH]c2ccccc2c1=O [TG6-41] | 5 µM | 50% | – | –
CCc1ccc(NC(=O)CSc2nc3ccccc3c(=O)n2CCCN(C)C)cc1 [TG6-43] | > 10 µM | 60% | – | –
CN(C)CCCn1c(SCC(=O)Nc2nc(-c3cccc(F)c3)cs2)nc2ccccc2c1=O [TG6-48] | – | 95% | – | –
CCN(CC)CCn1c(SCC(=O)Nc2nc(-c3cccc(Br)c3)cs2)nc2ccccc2c1=O [TG6-49] | 2 µM | 30% | – | –

Compound | IC50 | Emax (value in parentheses) | NOX2 IC50 (concentration giving half-maximal inhibition) | % inhibition (maximum inhibition achieved at a very high concentration of the compound) (value in parentheses)
O=c1c2ccccc2[nH]c(=S)n1CCN1CCCC1 [TG6-52] | 2 µM | 80% | – | –
O=c1c2ccccc2[nH]c(=S)n1CCN1CCCCC1 [TG6-53] | 1.5 µM | 90% | – | –
O=c1c2ccccc2[nH]c(=S)n1CCCN1CCOCC1 [TG6-54] | 2 µM | 80% | – | –
CN1CCN(CCCn2c(=S)[nH]c3ccccc3c2=O)CC1 [TG6-55] | 3 µM | 60% | – | –
CCCN(CCC)CCn1c(=S)[nH]c2ccccc2c1=O [TG6-56] | – | – | Not active | –
CCN(CC)CCn1c(=S)[nH]c2ccc(Cl)cc2c1=O [TG6-57] | 6 µM | 80% | – | –
CN(C)CCCn1c(SCC(=O)Nc2nc(-c3cccc(Br)c3)cs2)nc2ccc(Cl)cc2c1=O [TG6-58] | 5 µM | 90% | – | –
CSc1nc2ccc(Cl)cc2c(=O)n1CCC[N+](C)(C)C [TG6-59] | 3 µM | 75% | – | –
CN(C)CCCn1c(=S)[nH]c2cc(Cl)ccc2c1=O [TG6-62] | 5 µM | 90% | – | –
COc1cc2[nH]c(=S)n(CCCN(C)C)c(=O)c2cc1OC [TG6-63] | 2 µM | 60% | – | –
CN(C)CCCn1c(=S)[nH]c2cc(F)c(F)cc2c1=O [TG6-64] | 1 µM | 60% | – | –
CN(C)CCCn1c(=S)[nH]c2c(Cl)cc(Cl)cc2c1=O [TG6-65] | – | – | Not active | –
O=c1c2cc(Cl)ccc2[nH]c(=S)n1CCN1CCCCC1 [TG6-66] | 1.5 µM | 50% | – | –
CSc1nc2ccccc2c(=O)n1CCC[N+](C)(C)C [TG6-67] | 1.5 µM | 95% | – | –
CN(C)CCCn1c(SC(=O)N2CCN(C)CC2)nc2ccccc2c1=O [TG6-71] | – | – | Not active | –
CC(Sc1nc2ccccc2c(=O)n1CCCN(C)C)C(=O)Nc1nc(-c2cccc(Br)c2)cs1 (stereo not shown) [TG6-73] | > 20 µM | 50% | – | –
CN(C)CCCn1c(OCC(=O)N2CCCCC2)nc2ccccc2c1=O [TG6-74] | > 20 µM | – | – | –
CN(C)CCCn1c(OCC(=O)N2CCOCC2)nc2ccccc2c1=O [TG6-76] | > 20 µM | – | – | –
CN(C)CCCn1c(=S)[nH]c2ccc(F)cc2c1=O [TG6-79] | 1.5 µM | 60% | – | –
O=C(CSc1nc2ccccc2c(=O)n1CCN1CCCCC1)Nc1nc(-c2cccc(Br)c2)cs1 [TG6-81] | 1.5 µM | 70% | – | –
O=C(CSc1nc2ccccc2c(=O)n1CCCN1CCOCC1)Nc1nc(-c2cccc(Br)c2)cs1 [TG6-82] | – | – | Not active | –
CCSc1nc2ccccc2c(=O)n1CCCN1CCOCC1 [TG6-99-1] | – | – | Not active | –
